The source made the active and inactive calls. The rule behind the calls is not given here.
Experiments:
[1] = tested on: MDA-MB-231; experiment: Inhibition of colony formation in human MDA-MB-231 cells assessed as reduction in colony number at >=111 nM incubated for 10 days by crystal violet staining based analysis relative to control; assay type: functional; conditions: time 10 day
[2] = Toxicity in mouse assessed as increase in body weight at 62.5 to 500 mg/kg, ip administered for 16 days; assay type: organism-based; conditions: in vivo, 384 h, dose 62.5-500 mg/kg, time 16 day
[3] = molecular target: Cyclin-dependent kinase 1 (Homo sapiens) (UniProt P06493); experiment: Binding affinity to CDK1 in human MDA-MB-231 cells asssesed as thermal stabilization at 1 uM incubated for 8 hrs under 45 to 65 degreeC by Western blot analysis; assay type: cell-based
Cyclin-dependent kinase 1 (Homo sapiens), sequence (P06493 whole entry, looked up): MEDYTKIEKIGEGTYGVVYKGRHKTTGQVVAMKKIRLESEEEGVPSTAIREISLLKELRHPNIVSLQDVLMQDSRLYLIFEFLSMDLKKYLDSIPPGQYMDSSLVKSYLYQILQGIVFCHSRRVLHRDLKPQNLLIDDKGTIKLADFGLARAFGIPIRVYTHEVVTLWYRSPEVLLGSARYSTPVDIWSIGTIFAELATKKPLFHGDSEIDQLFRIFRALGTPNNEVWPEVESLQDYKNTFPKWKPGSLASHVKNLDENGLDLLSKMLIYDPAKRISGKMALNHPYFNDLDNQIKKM

[4] = tested on: MDA-MB-231; experiment: Inhibition of colony formation in human MDA-MB-231 cells at 20 nM incubated for 10 days in presence of olaparib by crystal violet staining based analysis; assay type: functional, cell-based; conditions: time 10.0 day
[5] = tested on: MDA-MB-231; experiment: Induction of apoptosis in human MDA-MB-231 cells assessed as early apoptotic cells at 37 nM incubated for 72 hrs by Annexin V-FITC/PI staining based flow cytometry analysis (reference value: 0.66 %); assay type: functional
[6] = tested on: 4T1; experiment: Antitumor activity against mouse 4T1 cells implanted in athymic BALB/c mouse assessed as tumor inhibition rate at 25 mg/kg, ip administered for 14 days relative to control; assay type: functional; conditions: 4T1, 336 h, time 14 day
[7] = tested on: MDA-MB-231; experiment: Inhibition of colony formation in human MDA-MB-231 cells at 20 nM incubated for 10 days by crystal violet staining based analysis; assay type: functional, cell-based; conditions: time 10.0 day
[8] = tested on: 4T1; experiment: Antitumor activity against mouse 4T1 cells implanted in athymic BALB/c mouse assessed as reduction in tumor weight at 12.5 to 25 mg/kg, ip administered for 14 days; assay type: functional, organism-based; conditions: dose 12.5-25 mg/kg, time 14.0 day
[9] = tested on: MDA-MB-231; experiment: Induction of apoptosis in human MDA-MB-231 cells assessed as increase in cleaved PARP-1 protein incubated for 24 hrs by Western blotting analysis; assay type: functional, cell-based; conditions: dose 37-1000 nM
[10] = Toxicity in mouse assessed as median lethal dose administered intraperitoneally for 16 days; conditions: in vivo, route ip, time 16 day
[11] = tested on: MDA-MB-231; experiment: Induction of apoptosis in human MDA-MB-231 cells assessed as early apoptotic cells at 333 nM incubated for 72 hrs by Annexin V-FITC/PI staining based flow cytometry analysis (reference value: 0.66 %); assay type: functional
[12] = tested on: MDA-MB-231; experiment: Induction of apoptosis in human MDA-MB-231 cells assessed as necrotic cells at 37 nM incubated for 72 hrs by Annexin V-FITC/PI staining based flow cytometry analysis (reference value: 0.49 %); assay type: functional
[13] = tested on: MDA-MB-231; experiment: Induction of apoptosis in human MDA-MB-231 cells assessed as early apoptotic cells at 1000 nM incubated for 72 hrs by Annexin V-FITC/PI staining based flow cytometry analysis (reference value: 0.66 %); assay type: functional
[14] = molecular target: Cyclin-dependent kinase 7/ cyclin H (Homo sapiens) (UniProt P51946+P50613); experiment: Inhibition of Flag-tagged CDK7(unknown origin)/Cyclin H (unknown origin) transfected in HEK293T cells at 1 to 3 uM incubated for 8 hrs by co-immunoprecipitation assay; assay type: cell-based; conditions: dose 1-3 µM
[15] = tested on: MDA-MB-231; experiment: Induction of apoptosis in human MDA-MB-231 cells transfected with shCDK9 assessed as increase in cleaved PARP expression at 300 nM by Western blot analysis; assay type: functional, cell-based
[16] = tested on: MDA-MB-231; experiment: Inhibition of cell invasion in human MDA-MB-231 cells at 1000 nM incubated for 24 hrs by crystal violet staining based transwell matrix penetration assay; assay type: functional
[17] = tested on: MDA-MB-231; experiment: Induction of apoptosis in human MDA-MB-231 cells assessed as necrotic cells at 333 nM incubated for 72 hrs by Annexin V-FITC/PI staining based flow cytometry analysis (reference value: 0.49 %); assay type: functional
[18] = tested on: MDA-MB-231; experiment: Induction of apoptosis in human MDA-MB-231 cells assessed as necrotic cells at 111 nM incubated for 72 hrs by Annexin V-FITC/PI staining based flow cytometry analysis (reference value: 0.49 %); assay type: functional
[19] = tested on: MDA-MB-231; experiment: Effect on Mcl-1 protein expression in human MDA-MB-231 cells transfected with shCDK9 at 300 nM by Western blot analysis; assay type: functional, cell-based
[20] = molecular target: Cyclin-dependent kinase 7 (Homo sapiens) (UniProt P50613); experiment: Binding affinity to CDK7 in human MDA-MB-231 cells asssesed as thermal stabilization at 1 uM incubated for 8 hrs under 45 to 65 degreeC by Western blot analysis; assay type: cell-based
Cyclin-dependent kinase 7 (Homo sapiens), sequence (P50613 whole entry): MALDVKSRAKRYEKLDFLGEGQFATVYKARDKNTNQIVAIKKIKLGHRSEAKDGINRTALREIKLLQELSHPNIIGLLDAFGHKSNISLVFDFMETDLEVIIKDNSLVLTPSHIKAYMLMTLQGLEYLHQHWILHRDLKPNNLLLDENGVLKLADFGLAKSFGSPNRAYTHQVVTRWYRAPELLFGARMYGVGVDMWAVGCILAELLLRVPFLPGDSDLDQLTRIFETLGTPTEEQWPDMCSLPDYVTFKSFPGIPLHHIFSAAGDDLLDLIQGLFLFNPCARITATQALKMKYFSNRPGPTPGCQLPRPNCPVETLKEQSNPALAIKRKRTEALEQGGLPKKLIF

[21] = Toxicity in athymic BALB/c mouse implanted with mouse 4T1 cells assessed as body weight loss at 25 mg/kg, ip administered for 14 days; assay type: organism-based; conditions: in vivo, 336 h, time 14 day
[22] = tested on: MDA-MB-231; experiment: Induction of apoptosis in human MDA-MB-231 cells assessed as viable cells at 37 nM incubated for 72 hrs by Annexin V-FITC/PI staining based flow cytometry analysis (reference value: 94.81 %); assay type: functional; conditions: read-out: Activity
[23] = MRT (0 to infinity) in Sprague-Dawley rat at 50 mg/kg, ip measured afer 24 hrs by LC-MS/MS analysis; assay type: ADME, organism-based; conditions: in vivo
[24] = tested on: MDA-MB-231; experiment: Antimetastasis activity in human MDA-MB-231 cells assessed as wound closure at 0.1 uM and measured upto 48 hrs by inverted microscope analysis (reference value: 46 %); assay type: functional
[25] = Toxicity in mouse assessed as death rate at 1000 mg/kg, ip administered for 16 days relative to control; assay type: organism-based; conditions: in vivo, time 16 day, read-out: Activity
[26] = tested on: MDA-MB-231; experiment: Induction of apoptosis in human MDA-MB-231 cells assessed as reduction in Bcl2 level incubated for 24 hrs by Western blot analysis; assay type: functional, cell-based; conditions: dose 37-1000 nM
[27] = Toxicity in athymic BALB/c mouse implanted with mouse 4T1 cells assessed as reduction in tolerance at 12.5 mg/kg, ip administered for 14 days; assay type: organism-based; conditions: in vivo, 336 h, time 14 day
[28] = Cytotoxicity against human L02 cells assessed as inhibition of cell growth incubated for 72 hrs by MTT assay; assay type: toxicity, cell-based
[29] = tested on: MDA-MB-231; experiment: Effect on RNA polymerase II phosphorylation at Ser2 residue in human MDA-MB-231 cells transfected with shCDK9 at 300 nM by Western blot analysis; assay type: functional, cell-based
[30] = tested on: MDA-MB-231; experiment: Induction of apoptosis in human MDA-MB-231 cells assessed as late apoptotic cells at 1000 nM incubated for 72 hrs by Annexin V-FITC/PI staining based flow cytometry analysis (reference value: 4.04 %); assay type: functional
[31] = Toxicity in mouse assessed as animal death at 62.5 to 500 mg/kg, ip administered for 16 days; assay type: organism-based; conditions: in vivo, 384 h, dose 62.5-500 mg/kg, time 16 day
[32] = tested on: MDA-MB-231; experiment: Antiproliferative activity against human MDA-MB-231 cells assessed as inhibition of 3D tumor growth at 100 nM incubated for 10 days in presence of olaparib by confocal laser scanning microscopic analysis; assay type: functional, cell-based; conditions: time 10.0 day
[33] = tested on: MDA-MB-231; experiment: Antiproliferative activity against human MDA-MB-231 cells assessed as decrease in sphere size by measuring diameter at 100 nM incubated for 10 days in presence of olaparib by confocal laser scanning microscopy; assay type: functional; conditions: time 10 day
[34] = tested on: MDA-MB-231; experiment: Effect on C-Myc protein expression in human MDA-MB-231 cells transfected with shCDK9 at 300 nM by Western blot analysis; assay type: functional, cell-based
[35] = Half life in Sprague-Dawley rat at 50 mg/kg, ip measured afer 24 hrs by LC-MS/MS analysis; assay type: ADME, organism-based; conditions: in vivo

COc1ccc(C(=O)Nc2cc(-c3ccnc(N4CCC(O)CC4)c3)ccn2)cc1
inhibition (INH) [1]: ~100%
Activity [2]: Non-Toxic
Activity [3]: inactive
inhibition [4]: Active
Activity [5]: 3.14%
inhibition in vivo at 25 mg/kg [6]: 86.1%
inhibition [7]: inactive
Activity [8]: Active
Activity [9]: Dose-Dependent Effect
LD50 at 384 h [10]: 750 mg/kg
Activity [11]: 20.4%
Activity [12]: 0.17%
Activity [13]: 14.2%
inhibition [14]: inactive
Activity [15]: inactive
inhibition [16]: Active
Activity [17]: 0.25%
Activity [18]: 0.17%
Activity [19]: inactive
Activity [20]: inactive
Activity [21]: Toxic
viability at 0.037 µM [22]: 83.6%
MRT inf [23]: 1.26 h
Activity [24]: 18%
mortality at 384 h [25]: 100%
Activity [26]: Dose-Dependent Effect
Activity [27]: Non-Toxic
IC50 at 72 h [28]: 756 nM
Activity [29]: inactive
Activity [30]: 71.6%
Activity [31]: Non-Toxic
Activity [32]: Active
Activity [33]: 310.56 um
Activity [34]: inactive
half-life [35]: 1.67 h

Reference: ChEMBL document CHEMBL5634134, “Design, synthesis, and biological evaluation of novel 4,4'-bipyridine derivatives acting as CDK9-Cyclin T1 protein-protein interaction inhibitors against triple-negative breast cancer” (Eur J Med Chem, 2023)
